These are literature values, as cited in patent US12357587B2, “Cannabinoid monoterpene based pharmaceutical topical composition for musculoskeletal pain” (MOUNTAIN VALLEY MD INC., priority 2022, dated 2025).

For data set [1] the following is noted: purified compound; rat chronic constriction injury.

For the compound `C=C(C)[C@@H]1CCC(C)=C[C@H]1c1c(O)cc(CCCCC)cc1O` [cannabidiol (CBD), cannabidiol], the “relief of neuropathic pain” value in data set [1] is listed as “partially relieved neuropathic pain”.
Turning to `NC(=O)N1c2ccccc2C=Cc2ccccc21` [carbamezepine], the “decrease in white blood cell count” value (observed in 7% of patients, usually reversed within the first 4 months of therapy) was 25%. Besides, for the setting “patients taking carbamezepine”, the “increase in the risk of blood dyscrasias” value is given as “five- to eight”. Moreover, the “patients with a 25% decrease in white blood cell count” value (usually reversed within the first 4 months of therapy) was 7%.
